Source: US10059674B2, “Design, synthesis, and biological evaluation of 1-methyl-1, 4-dihyrdoindeno[1,2-C]pyrazole analogues as potential anticaner agents targeting tubulin colchicine binding site” (ACT PHARMA CO., LTD., priority 2016, dated 2018)
pIC50: −log10 of the molar value. Like-named read-outs stand apart in the source and are kept apart here.

Experiments:
in vitro [1] = settings: human, microsomes, pH 7.47
[2] = test system: human breast adenocarcinoma (MCF-7) cells; assay: Anti-proliferation test (MTT colorimetry); type: cell-based; settings: MCF7, MCF-7, 72 h
Experimental: (§1) The compound of formula 1 (prepared in embodiment 1), and the compound of formula 2 (prepared in embodiment 2) are given at different concentrations to human hepatocellular carcinoma (HepG2) cells, human prostate carcinoma (PC3) cells, human cervical carcinoma (HeLa) cells, human breast adenocarcinoma (MCF-7) cells, and human leukemia (K562) cells; all the groups are incubated 72 h in an incubator containing 5% of CO2 at 37° C., and then inhabitation ratios of the compounds to the tumor cells are measured by using methyl thiazolyl tetrazolium (MTT) colorimetry, and results are shown in table 1.

[3] = test system: human cervical carcinoma (HeLa) cells; assay: Anti-proliferation test (MTT colorimetry); type: cell-based; settings: 72 h
Experimental: as §1

[4] = test system: human leukemia (K562) cells; assay: Anti-proliferation test (MTT colorimetry); type: cell-based; settings: K562, 72 h
Experimental: as §1

[5] = test system: human prostate carcinoma (PC3) cells; assay: Anti-proliferation test (MTT colorimetry); type: cell-based; settings: PC-3, PC3, 72 h
Experimental: as §1

[6] = test system: human hepatocellular carcinoma (HepG2) cells; assay: Anti-proliferation test (MTT colorimetry); type: cell-based; settings: HepG2, 72 h
Experimental: as §1

in vitro [7] = settings: monkey, microsomes, pH 7.47
tubulin = assay: Tubulin polymerization experiment (Cytoskeleton Tubulin Polymerization Assay Kit); type: biochemical
Experimental: The tubulin polymerization experiment is carried out according to the specifications of Tubulin Polymerization Assay Kit of Cytoskeleton Corporation.

in vitro [8] = settings: rat, microsomes, pH 7.47
[9] = human, microsomes, 1 µM, pH 7.47

With `CCOc1cccc(Nc2nn(C)c3c2Cc2cc(OCC)c(OCC(N)=O)cc2-3)c1` [LL-01] the half-life at 1 µM (in vitro [1]) was 44.7 min, the microsomal CLint at 1 µM (in vitro [1]) was 31 µL/min/mg and the pIC50 [2] was 8.49. The pIC50 [3] was 8.13, the pIC50 [4] was 8.15 and the pIC50 [5] was 7.72. The pIC50 [6] was 7.59, the half-life at 1 µM (in vitro [7]) was 21.6 min and the microsomal CLint at 1 µM (in vitro [7]) was 64.2 µL/min/mg. For the same compound, the “inhibition of tubulin polymerization (in words)” value (tubulin; FIGS. 1 and 2) was “able to inhibit tubulin polymerization”, the pIC50 (tubulin; read-out: tubulin polymerization inhibiting IC50) was 5.34 and the half-life at 1 µM (in vitro [8]) was 56.8 min. For the same compound, the microsomal CLint at 1 µM (in vitro [8]) was 24.4 µL/min/mg, the Remainder ([9]; 0 h) was 100.00% and the Remainder ([9]; 10 min) was 78.76%. The Remainder ([9]; 0.5 h) was 56.18% and the Remainder ([9]; 1.5 h) was 23.87%.
